Article PMC10688034 (ACS Omega, 2023)

Key:
[1] = cited from earlier work
[2] = system: SARS-CoV-2; format: cell-based
[3] = system: SARS-CoV-2; format: cell-based; conditions: Calu-3, independently of the time of administration
[4] = system: Calu-3 cells; conditions: MTT
[5] = in vitro; conditions: African green monkey
[6] = system: Vero E6 cells; conditions: MTT, within the concentration range tested (1-80 μM)

Compound	decomposition in cell culture medium after 6 h [1]	LR (reduction of viral load) [2] [log]	effect on viral replication (in words) [3]	cytotoxicity (in words) ([4]; concentration up to 20 μM)	cell viability at the higher concentrations tested (in words) ([4]; concentrations above 20 μM)	IC50 [5] [µM]	cytotoxicity (in words) [6]
C[C@H]1[C@@H](O)O[C@@H]2O[C@@]3(C)CC[C@H]4[C@H](C)CC[C@@H]1[C@@]24OO3 [DHA, dihydroartemisinin]	up to 70%	< 1	slightly interfere with viral replication	noncytotoxic	slightly altering cell viability	21.6	–
C[C@H](CCC(=O)O)[C@H]1CC[C@H]2[C@@H]3[C@@H](O)C[C@@H]4C[C@H](O)CC[C@]4(C)[C@H]3CC[C@]12C [UDCA, ursodeoxycholic acid]	–	< 1	–	–	–	–	noncytotoxic
